Patent publication US7642051B2, “Screening methods for the identification of inhibitors of human immunodeficiency virus (HIV) viral protein R (Vpr) binding to the adenine nucleotide translocator (ANT)” (priority 2000, dated 2010)
Entries after “also recorded” stand apart in the source; their conditions may differ. Read-outs that look alike come from different tables or passages of the source. Where no end group is shown, it is not given here.

Experiments:
Vpr52-96-ANT interaction = target: T1, Vpr52-96-ANT interaction (Rattus norvegicus, UniProt Q05962); assay type: binding; conditions: BA 250 μM, Atr 50 μM, peptides 5 μM
T1 construct: from tissue; host or cells: rat heart (ANT)
T1 sequence (Q05962 2-298 limits assumed): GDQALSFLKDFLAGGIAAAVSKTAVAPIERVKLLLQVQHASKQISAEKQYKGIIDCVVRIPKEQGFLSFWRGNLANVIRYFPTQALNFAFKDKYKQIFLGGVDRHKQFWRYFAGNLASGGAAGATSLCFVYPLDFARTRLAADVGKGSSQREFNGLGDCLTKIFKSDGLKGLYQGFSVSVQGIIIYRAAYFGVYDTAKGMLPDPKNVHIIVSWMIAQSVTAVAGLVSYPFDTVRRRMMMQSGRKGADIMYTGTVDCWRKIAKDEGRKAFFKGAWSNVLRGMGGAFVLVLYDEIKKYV

purified mitochondria [1] = experiment: Binding of FITC-Vpr52-96 to purified mitochondria; conditions: pre-incubation 10 min
Protocol: Mitochondria were left unstained (insert in Co.) or exposed to the ΔΨm-insensitive mitochondrial dye MitoTracker® Green (75 nM), alone (MTG) or with 0.5 μM of FITC-Vpr52-96; green fluorescence), in combination with the ΔΨm-sensitive mitochondrial dye MitoTracker® Red (CMXRos; red Fluorescence) followed by cytofluorometric two-color analysis. Numbers indicate the percentage of mitochondria in each quadrant.
(§1) Mitochondria were pre-incubated 10 min. with the indicated inhibitors and the percentage of FITC-Vpr52-96-labelled mitochondria is determined as in A. C. […] Mitochondria were incubated with the indicated inhibitors, and then exposed for 30 min at RT with 5 μM biotinylated Vpr52-96. Mitochondria were lysed either after incubation with biotinylated Vpr52-96 (upper panel) or lysed before (lower panel) with Tris/HCl as described in materials and methods. Biotinylated Vpr52-96 complexed with its mitochondrial ligands was retained on avidin-agarose and subjected to immunoblot detection of ANT.

ANT-proteoliposomes = target: T2, ANT-proteoliposomes (Rattus norvegicus, UniProt Q05962); assay type: binding
T2 construct: ANT is purified from rat heart and reconstituted in liposomes; from tissue; host or cells: rat heart
T2 sequence (Q05962 1-298): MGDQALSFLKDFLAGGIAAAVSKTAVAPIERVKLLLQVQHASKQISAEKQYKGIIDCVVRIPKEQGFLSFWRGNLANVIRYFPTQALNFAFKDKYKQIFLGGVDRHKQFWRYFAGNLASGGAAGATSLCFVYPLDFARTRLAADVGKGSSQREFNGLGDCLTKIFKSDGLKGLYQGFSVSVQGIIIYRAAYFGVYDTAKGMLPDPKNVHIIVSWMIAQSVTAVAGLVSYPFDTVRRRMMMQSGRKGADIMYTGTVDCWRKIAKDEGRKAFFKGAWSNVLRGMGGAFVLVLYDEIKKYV
Protocol: 1. Purification of ANT. ANT is purified from rat heart and reconstituted in liposomes according to the protocol described by Brenner et al., Oncogene, 2000.
2. Reconstitution of ANT in liposomes. ANT (0.03 mg/ml) is incorporated in liposomes composed of phosphatidylcholine and cardiolipine (PC:CL; 45:1; W: w; and 300 ng ANT per mg of lipids) in the presence of 0.3% n-octyl-β-D-pyranoside for 2 min. at room temperature. […] Then, the detergent is eliminated by dialyzing, overnight, the liposomes against the buffer 10 mM HEPES, 125 mM sucrose, pH7.4 at 4° C. (e.g.: about 11 of buffer per 1 ml liposomes).

isolated mitochondria = experiment: Electron microscopy of isolated mitochondria (matrix swelling); assay type: biochemical; conditions: for inhibition of Vpr-induced matrix swelling: Vpr52-96 3 μM, 0.8 μM Bcl-2 or 2 μM PA10
Description: C. Ultrastructural effects of Vpr on isolated mitochondria.

purified mitochondria [2] = experiment: ΔΨm dissipation in purified mitochondria (JC-1 flow cytometry); assay type: biochemical; conditions: for inhibition of Vpr-induced ΔΨm loss in purified mitochondria: 5 μM CsA, 50 μM BA, 0.8 μM Bcl-2, 2 μM PA10, Vpr52-96 3 μM, 5 min
Protocol: C. […] Purified mitochondria were treated with 1 μM Vpr52-96 subjected to cytofluorometric determination of the percentage of mitochondria having a low ΔΨm using the ΔΨm-sensitive fluorochrome JC-1. In parallel, cytochrome c was immunodetected in the supernatant of mitochondria.
Numbers indicate the percentage of JC-1^high and JC-1^low mitochondria among ˜10^4 events.
E. Quantitation of the frequency of JC-1^low mitochondria (X±SD, n=5) after incubation with different Vpr-derived peptides.

purified mitochondria [3] = experiment: Respirometry of purified mitochondria (respiratory control); assay type: biochemical; conditions: 10 min after 1 μM peptide; control mitochondria 5.3
Protocol: A. Oxygen consumption curves after addition of the indicated agents. Trace a: control mitochondria (no pretreatment). Trace b: mitochondria pretreated for 10 min with 1 μM Vpr52-96. Numbers along the traces are nmol of 02 consumed min^−1 mg^−1 protein.
B. Respiratory control (RC) values calculated by dividing oxygen consumption in the presence of CCCP by that measured with oligomycin (determined as in A), 10 min after addition of 1 μM of Vpr-derived peptides (mean values of 3 determinations).

ANT [4] = target: T3, ANT (Rattus norvegicus, UniProt Q05962); assay type: binding; conditions: X±SD, n=5; read-out: calculated KD of the interaction of ANT with Vpr52-96
T3 construct: from tissue; host or cells: rat heart
Description: A. Plasma surface resonance sensorgrams of the interaction of ANT with Vpr52-96, Vpr52-96[R73A,80A] or an irrelevant control (Co).
B. Langmuir isotherm determined at different concentrations of ANT on sensorgrams corrected by subtraction of the blank (sensorgrams obtained with Vpr52-96[R73A,80A]).

ANT [5] = target: T3, ANT; assay type: biochemical
Protocol: (§2) FIG. 3 presents electrophysiological properties of Vpr52-96 and ANT in planar lipid bilayers.
(§3) Single channel recordings were performed using the “Tip-Dip” technique. The recordings shown are representative for at least three independent determinations.
(§4) B. Statistical analysis of conductances obtained in A. Results were expressed as current distributions at different voltages. Conductances (γ; in picosiemens, pS) are calculated by division of current by voltage.

ANT [6] = target: T3, ANT; conditions: surface plasmon resonance, Jacotot et al. 2000; cited from earlier work
ANT [7] = conditions: 5 μM biotinylated Vpr52-96, 30 min
Protocol: as §1

COS cells = experiment: Vpr52-96-induced ΔΨm dissipation in intact microinjected cells; assay type: cell-based; conditions: Bcl-2 10 μM, PA10 2 μM microinjected
Description: A. Vpr52-96-induced ΔΨm dissipation induced in intact cells.

Vpr52-96 = Vpr52-96 (Human immunodeficiency virus type 1 group M subtype B, UniProt P69726)
ANT [8] = target: T4, ANT (Rattus norvegicus, UniProt Q05962); assay type: biochemical; remark: listed apart in the source
T4 construct: from tissue; host or cells: rat heart
T4 sequence (Q05962 whole entry, looked up): T2 sequence (Q05962 1-298)
Protocol: as §2, §3, §4

[9] = target: T5, adenine nucleotide translocator (ANT), native purified, detergent-solubilized or reconstituted in liposomes / planar lipid bilayers (rat), Q05962; experiment: cell-based or functional assay
T5 chain: T1 sequence (Q05962 2-298 limits assumed)

[10] = target: T5, adenine nucleotide translocator (ANT), …; experiment: flow cytometry of liposomes; FITC-Vpr52-96 on ANT-proteoliposomes
[11] = target: biotin-Vpr52-96 (biotinylated C-terminal moiety of HIV-1 Vpr) (HIV-1), P12520; experiment: surface plasmon resonance, Langmuir isotherm, peptide on biotinylated Vpr52-96

Molecule: C=C1[C@@H]2CC[C@H]3[C@]4(C)C[C@H](O[C@@H]5O[C@H](CO)[C@@H](OS(=O)(=O)O)[C@H](OS(=O)(=O)O)[C@H]5OC(=O)CC(C)C)C[C@@H](C(=O)O)[C@H]4CC[C@]3(C2)[C@H]1O [Atr, atractyloside]
- modulation of the Vpr52-96-ANT interaction by ANT ligands and peptides (Vpr52-96-ANT interaction): favors Vpr binding

Molecule: CO[C@H](C/C=C\C=C\CC/C=C/C[C@H](C)/C=C/C(=C\C(=O)O)CC(=O)O)/C(C)=C\C=C(/C)C(=O)O [BA, bongkrekic acid, reference compound]
- effect on binding of Vpr52-96 to purified mitochondria (purified mitochondria [1]): partially reduced
- modulation of the Vpr52-96-ANT interaction by ANT ligands and peptides (Vpr52-96-ANT interaction): reduces Vpr binding
- effect on Vpr52-96 binding to membrane-associated ANT (ANT proteoliposomes) (ANT-proteoliposomes; BA 50 μM, Bcl-2 800 nM): inhibited
- inhibition of Vpr-induced matrix swelling (isolated mitochondria): inhibited
- inhibition of Vpr-induced ΔΨm loss in purified mitochondria (purified mitochondria [2]): inhibited

Molecule: CC[C@H](C)[C@H](NC(=O)[C@H](C)NC(=O)[C@H](CCC(=O)O)NC(=O)[C@@H](NC(=O)CNC(=O)[C@H](C)NC(=O)[C@H](Cc1c[nH]c2ccccc12)NC(=O)[C@@H](NC(=O)[C@@H](N)CC(=O)O)[C@@H](C)O)C(C)C)C(=O)N[C@H](C(=O)N[C@@H](CCCNC(=N)N)C(=O)N[C@H](C(=O)N[C@@H](CC(C)C)C(=O)N[C@@H](CCC(N)=O)C(=O)N[C@@H](CCC(N)=O)C(=O)N[C@@H](CC(C)C)C(=O)N[C@@H](CC(C)C)C(=O)N[C@@H](Cc1ccccc1)C(=O)N[C@H](C(=O)N[C@@H](Cc1c[nH]cn1)C(=O)N[C@@H](Cc1ccccc1)C(=O)N[C@@H](CCCNC(=N)N)C(=O)N[C@H](C(=O)NCC(=O)N[C@@H](CS)C(=O)N[C@@H](CCCNC(=N)N)C(=O)N[C@@H](Cc1c[nH]cn1)C(=O)N[C@@H](CO)C(=O)N[C@@H](CCCNC(=N)N)C(=O)N[C@H](C(=O)NCC(=O)N[C@H](C(=O)N[C@H](C(=O)N[C@@H](CCCNC(=N)N)C(=O)N[C@@H](CCC(N)=O)C(=O)N[C@@H](CCCNC(=N)N)C(=O)N[C@@H](CCCNC(=N)N)C(=O)N[C@@H](C)C(=O)N[C@@H](CCCNC(=N)N)C(=O)N[C@@H](CC(N)=O)C(=O)NCC(=O)N[C@@H](C)C(=O)N[C@@H](CO)C(=O)N[C@@H](CCCNC(=N)N)C(=O)N[C@@H](CO)C(=O)O)[C@@H](C)O)C(C)C)[C@@H](C)CC)[C@@H](C)CC)[C@@H](C)CC)[C@@H](C)CC)[C@@H](C)CC [Vpr52-96]
- respiratory control (RC) value (purified mitochondria [3]): 1.1
- Kd (ANT [4]): 9.7 ± 6.4 nM
- Vpr52-96 binding to ANT liposomes compared to protein-free liposomes (ANT-proteoliposomes): greatly facilitated
- conductance of Vpr52-96-ANT channels without any further addition (ANT [5]; as printed in Example 4): 190±2
- channel formation in planar lipid bilayers without ANT (ANT [5]; low doses (<1 nM), no ANT): incapable of forming channels
- ultrastructural effect on mitochondria (isolated mitochondria; 3 μM, 5 or 15 min): matrix swelling before OM rupture became apparent
- affinity of Vpr C-terminus for purified ANT (ANT [6]): high affinity in the nanomolar range
- timing of ΔΨm loss relative to cytochrome c release (purified mitochondria [2]; Vpr52-96 1 μM): well before cytochrome c release can be detected

Molecule: Bcl-2: recombinant human Bcl-2 protein
- effect on affinity purification of ANT with biotinylated Vpr52-96, intact mitochondria (ANT [7]): reduced the Vpr52-96-mediated recovery of ANT
- effect on binding of Vpr52-96 to purified mitochondria (purified mitochondria [1]): failed to impair the binding
- effect on Vpr52-96 binding to membrane-associated ANT (ANT proteoliposomes) (ANT-proteoliposomes): reduced Vpr52-96 binding
- prevention of Vpr effect on intact cells by microinjection (COS cells): prevented
- binding of Bcl-2 to Vpr52-96 (Vpr52-96): did not bind Vpr52-96
- effect on formation of Vpr52-96 induced channels in ANT-containing lipid bilayers (ANT [8]): abolished the formation of Vpr52-96 induced channels
- inhibition of Vpr-induced matrix swelling (isolated mitochondria): inhibited; also recorded: strongly reduced
- inhibition of Vpr-induced ΔΨm loss in purified mitochondria (purified mitochondria [2]): inhibited; also recorded: strongly reduced

Molecule: DTWAGVEAIIRILQQLLFIHFRIGCRHSRIGVTRQRRARNGASRS (modifications not checked) [Vpr52-96, P12520 52-96]
- conductance of Vpr52-96-ANT channels in the presence of Bax [9]: 245
- conductance of channels in planar lipid bilayers [9]: 190 pS

Molecule: DTWAGVEAIIRILQQLLFIHFRIGCRHSRIGVTRQRRARNGASRS (not fully specified) [FITC-labeled Vpr52-96, P12520 52-96]
- EC50 (read off the curve) [10]: 900 nM

Molecule: DKRTQFWRYFAGN (modifications not checked) [ANT-2-derived peptide ANT104-116]
- Kd [11]: 35000 nM
